Test results from US5656308A, “Non-reducing oligosaccharide with neotrehalose structure, and its production and uses” (Kabushiki Kaisha Hayashibara Seibutsu Kagaku Kenkyujo, priority 1993, dated 1997).

Test system: mice
Assay: Acute toxicity in mice upon oral administration
Assay type: in vivo
Method: High-purity β-maltosyl α-glucoside, α-maltosyl β-glucoside, β-maltotriosyl α-glucoside, α-maltotriosyl β-glucoside and β-maltosyl α-maltoside prepared by the method in Experiment 2 were tested for acute toxicity in mice upon oral administration.

Row | SMILES | acute toxicity (in words) | death with maximum administrable dose
1 | OC[C@H]1O[C@@H](O[C@H]2O[C@H](CO)[C@@H](O[C@H]3O[C@H](CO)[C@@H](O[C@H]4O[C@H](CO)[C@@H](O)[C@H](O)[C@H]4O)[C@H](O)[C@H]3O)[C@H](O)[C@H]2O)[C@H](O)[C@@H](O)[C@@H]1O [α-maltotriosyl β-glucoside, O-α-D-gluco- pyranosyl-(1→4)-O-α-D-glucopyranosyl-(1→4)-α-D-glucopyranosyl β-D-glucopyranoside] | less toxic | no death was observed
2 | OC[C@H]1O[C@@H](O[C@H]2O[C@H](CO)[C@@H](O[C@H]3O[C@H](CO)[C@@H](O)[C@H](O)[C@H]3O)[C@H](O)[C@H]2O)[C@H](O)[C@@H](O)[C@@H]1O [α-maltosyl β-glucoside, O-α-D-glucopyranosyl-(1→4)-α-D-glucopyranosyl β-D-glucopyranoside] | less toxic | no death was observed
3 | OC[C@H]1O[C@H](O[C@@H]2O[C@H](CO)[C@@H](O[C@H]3O[C@H](CO)[C@@H](O)[C@H](O)[C@H]3O)[C@H](O)[C@H]2O)[C@H](O)[C@@H](O)[C@@H]1O [β-maltosyl α-glucoside, O-α-D-glucopyranosyl-(1→4)-β-D-glucopyranosyl α-D-glucopyranoside] | less toxic | no death was observed
4 | OC[C@H]1O[C@H](O[C@@H]2O[C@H](CO)[C@@H](O[C@H]3O[C@H](CO)[C@@H](O[C@H]4O[C@H](CO)[C@@H](O)[C@H](O)[C@H]4O)[C@H](O)[C@H]3O)[C@H](O)[C@H]2O)[C@H](O)[C@@H](O)[C@@H]1O [β-maltotriosyl α-glucoside, O-α-D-glucopyranosyl-(1→4)-O-α-D-glucopyranosyl-(1→4)-β-D-glucopyranosyl α-D-glucopyranoside] | less toxic | no death was observed
5 | OC[C@H]1O[C@H](O[C@H]2[C@H](O)[C@@H](O)[C@H](O[C@H]3O[C@H](CO)[C@@H](O[C@H]4O[C@H](CO)[C@@H](O)[C@H](O)[C@H]4O)[C@H](O)[C@H]3O)O[C@@H]2CO)[C@H](O)[C@@H](O)[C@@H]1O [β-maltosyl α-maltoside, O-α-D-glucopyranosyl-(1→4)-β-D-glucopyranosyl α-D-maltoside] | less toxic | no death was observed
